Source: PubChem BioAssay (NCI)
“And” between values parts separate entries of the source, which are not always exact repeats. Identical values can stand only once.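 These data come from cells grown in 96-well plates and exposed to compound for 48 hours at five concentrations. At the GI50, growth is halved. The concentration for full growth arrest is given as TGI.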 Residues, ends and D or L forms follow the SMILES beside them. *: point of attachment. Cbz = O=C(OCc1ccccc1)*

Tested on: MDA-MB-468 breast
Experiment: inhibition of tumour cell growth, NCI panel, 48 h

SMILES	GI50	TGI
C[C@H]1CCC/C=C/[C@@H]2C[C@H](O)C[C@H]2[C@H](O)/C=C/C(=O)O1	31.2 nM	268 nM
O=[N+]([O-])c1ccc2c(c1)C(c1ccccc1Cl)=Nc1c(n[nH]c1-c1cccnc1)N2	> 25000 nM	> 25000 nM
Cc1[nH]nc2ncc(C(=O)N3CCC[C@H]3c3ccc(Cl)cc3)cc12	33300 nM	> 100000 nM
NC(N)=Nc1ccc(/C=C2\C=Cc3ccccc32)cc1	148 nM	969 nM
NC(=O)c1cc(Br)ccc1NC(=O)/C=C/c1ccccc1	837 nM	4320 nM
Cn1cc(C2=C(c3cn(CCCCCO)c4ccccc34)C(=O)NC2=O)c2ccccc21	3470 nM	14100 nM
CN(C)C=Nc1c(I)cc(I)c(CCC(=O)O)c1I	> 100000 nM	> 100000 nM
CN(C)CCOc1ccccc1NC1=C(Cl)C(=O)C(Nc2ccccc2OCCN(C)C)=C(Cl)C1=O	579 nM	1170 nM
NCCSC(c1ccccc1)(c1ccccc1)c1ccccc1	357 nM	1630 nM
CN(C)Cc1c(C(=O)NCCOc2ccc(C(=O)NO)cc2)oc2ccccc12	152 nM	2360 nM
Cc1[nH]c(C(=O)Nc2ccccc2OCc2cccc(C(=O)NC3CCNC3)c2)c(Cl)c1Cl (centres undefined)	1890 nM	3600 nM
Cc1cccc(Cl)c1NC(=O)c1cnc(Nc2cc(N3CCOCC3)cc(S(C)(=O)=O)c2)s1	1470 nM	8030 nM
CC(=O)N[C@@H](Cc1ccc(OP(=O)(O)O)cc1)C(=O)N[C@H]1CCC(=O)N2CCC[C@@H](C(=O)NCc3ccccc3)N2C1=O	> 25000 nM	> 25000 nM
CN1CCN(Cc2ccc(NC(=O)c3cncc(C#Cc4cnc5ccc(OC6CCOCC6)nn45)c3)cc2C(F)(F)F)CC1	105 nM	278 nM
CCCCCCCCCCCCCCCCN(CC)CC	2210 nM	4550 nM
CNC(=O)c1cccc(C#Cc2cncnc2Nc2ccc(OCc3cccc(F)c3)c(Cl)c2)c1	616 nM	4050 nM
Cn1c(=O)c(Oc2ccc(F)cc2F)cc2cnc(NC3CCOCC3)nc21	> 25000 nM	> 25000 nM
O=c1oc2ccc(Br)cc2c(=O)n1-c1ccc(Cl)cc1F	1380 nM	5190 nM
C=CC(=O)Nc1cccc(Oc2nc(Nc3ccc(N4CCN(C)CC4)cc3OC)ncc2Cl)c1	113 nM	518 nM
CC(C)Cc1ccc(C(C)C(=O)NCc2ccc(Cn3c(=O)sn(CCCI)c3=O)cc2)cc1 (centres undefined)	423 nM	1620 nM
CCCN(CCC)c1ccc(C=O)c(C)c1	1980 nM	32500 nM
CC(C)C[C@@H](C=O)NC(=O)[C@H](CC(C)C)NC(=O)[C@H](CC(C)C)NC(=O)OCc1ccccc1 (Cbz-Leu-Leu-Leu-aldehyde)	249 nM	663 nM
COc1cc2nc3cc([N+](=O)[O-])ccc3c(NCCNCC(C)O)c2cc1OC (centres undefined)	203 nM	542 nM
Cc1ccccc1C(C(=O)NC1CCCCC1)N(C(=O)CNc1ncccc1F)c1cccc(F)c1 (centres undefined)	> 65600 nM	> 100000 nM
C=CCOC(=O)Nc1cccn([C@H](CC(C)C)C(=O)NCCC(C)C)c1=O	42400 nM	> 100000 nM
Cc1sc2c(c1C)C(c1ccc(Cl)cc1)=N[C@@H](CC(=O)NCCCN1CCN(C)CC1)c1nnc(C)n1-2	197 nM	> 100000 nM

SMILES	GI50	TGI
COC(=O)[C@@H](C)C[C@H](Cc1ccccc1)NC(=O)c1csc([C@@H](C[C@H](C(C)C)N(C)C(=O)[C@@H](NC(=O)[C@H]2CCCN2C)C2CC2)OC(C)=O)n1	0.328 nM and 2.5 nM	> 25000 nM
O=C1CC(N2C(=O)/C(=C/C(Cl)=C\c3ccc([N+](=O)[O-])cc3)SC2=S)C(=O)N1c1ccc(O)cc1 (centres undefined)	1870 nM	5700 nM
O=C(O)c1cn(C2CC2)c2cc(N3CCN(Cc4c(O)ccc5ccccc45)CC3)c(F)cc2c1=O	15200 nM	> 100000 nM
Cc1ccc(OCCOCCOCCOCCOCCOc2ccc(C)n(O)c2=S)c(=S)n1O	36.8 nM	412 nM
O=C1c2c(Cl)c(Cl)c(Cl)c(Cl)c2C(=O)C2(Cl)CC=CCC12Cl (centres undefined)	1210 nM	2880 nM
COC(=O)CNc1nc(N(C)O)nc(N(C)O)n1	2160 nM	17400 nM
COc1ccc(Cn2cc3c(c2-c2cc(OC)c(OC)c(OC)c2)CCc2c(CO)noc2-3)cc1	307 nM	18900 nM
C=C1CC2C3C=C(C)C4=CC(=O)CC[C@]4(C)C3CC[C@]2(C)[C@@]1(OC(C)=O)C(C)=O (some centres undefined)	3230 nM	> 100000 nM
Cc1ccsc1-c1ccc2c(c1)COC2(CCCN(C)C)c1ccc(F)cc1 (centres undefined)	1580 nM	3060 nM
C=CC(=O)N1CC[C@H](n2nc(C#Cc3cc(OC)cc(OC)c3)c3c(N)ncnc32)C1	3330 nM	78500 nM
COc1cc(/C=C/C(=O)c2c(-c3ccc(F)cc3)nc3sc(C)nn23)cc(OC)c1OC	1920 nM	7740 nM
CC1Cc2ccccc2N1C(=O)Cc1nc(N2CCOCC2)cc(=O)[nH]1 (centres undefined)	2060 nM and 5780 nM	17100 nM and 47500 nM
Nc1ncn([C@H]2C[C@H](OP(=O)(O)OC[C@H]3O[C@@H](n4cnc5c(=O)[nH]c(N)nc54)C[C@@H]3O)[C@@H](CO)O2)c(=O)n1	154 nM	67900 nM
Cc1ccccc1C(C(=O)NC1CCCCC1)N(C(=O)CNc1ccc(C#N)cc1)c1cccc(F)c1 (centres undefined)	25700 nM	> 100000 nM
CC/C=C\C[C@H](O)C/C=C1/C(=O)C=C[C@@H]1C/C=C\CCCCO	1970 nM	4650 nM
O=S(=O)(NCCCNc1cc(-c2cn(-c3ccccc3)nc2-c2cccc(O)c2)ccn1)c1ccc(Br)cc1	1540 nM	5610 nM
COc1ccc2c(c1)C(c1cc(OC)c3c(c1)OCO3)C1=C(COC1=O)N2 (centres undefined)	205 nM	849 nM
O=C1NC(=NCCc2ccccn2)S/C1=C\c1ccc2ncccc2c1	5770 nM	> 25000 nM
NC(=O)n1c(=O)n(-c2cccc(C(F)(F)F)c2)c(=O)c2cc(-c3ccc(F)cc3F)ccc21	1840 nM	5830 nM
CN(C)CCS(=O)(=O)Nc1cc(-c2ccc3ncc(C#N)c(Nc4ccc(F)c(Cl)c4)c3c2)cnc1Cl	58.3 nM	233 nM
COc1cc(C2CC(=O)Nc3c2c(C)nn3-c2nc3ccccc3[nH]2)cc(OC)c1O (centres undefined)	2370 nM	7090 nM
C=C1C(=O)O[C@H]2[C@H]1CC/C(CNC(=O)/C=C/c1ccccc1F)=C\CC[C@@]1(C)O[C@@H]21	493 nM	1960 nM
COc1ccc(-c2[nH]nc(N)c2-c2cc(OC)c(OC)c(OC)c2)cc1	36.8 nM	6230 nM
CCNCCNc1cc(-c2ccc(C(F)(F)F)cc2)c(C#N)c2nc3cc(Cl)c(Cl)cc3n12	1830 nM	3390 nM
N#CC1=C(N)Oc2c(sc3c(Br)cccc23)C1c1ccc(Cl)cc1 (centres undefined)	521 nM	3200 nM
Oc1ccccc1/C=N\NC(=S)N/N=C/c1ccccc1O	2240 nM	30500 nM
